Test results from US4629737A, “Secondary amines and use in pharmaceutical compositions” (Beecham Group p.l.c., priority 1982, dated 1986).
Counter-ions that a name gives are not always drawn. Like-named read-outs stand apart in the source and are kept apart here.

Key:
[1] = tested on: blood glucose; experiment: Hypoglycaemic activity: reduction in area under blood glucose curve after glucose load; format: in vivo, Female CFLP mice; conditions: Mus musculus, read-out: % Reduction in area under Blood Glucose Curve
Procedure: Female CFLP mice, weighing approximately 25 g, were fasted for 24 hours prior to the study. The compounds under study were administered orally as an aqueous solution to each of 6 mice. 30 minutes later a blood sample (10 μl) was obtained from the tail for the analysis of blood glucose. Immediately after taking this blood sample, glucose (1 g/Kg body weight) was administered subcutaneously to each mouse. 6 mice were given water as a control. Blood samples were then obtained from each mouse at 30 minute intervals for 120 minutes.
Compounds that produced a significant (P<0.05) reduction of blood glucose, compared with control mice given water, at any time interval, were considered active. The area under the blood glucose curve over the 2 hour period after the administration of the glucose was calculated for each compound and compared with the value for control animals.

[2] = Effect on energy expenditure of mice; format: in vivo, Female CFLP mice; conditions: Mus musculus
Procedure: Female CFLP mice, each weighing approximately 24 g were given food and water ad lib before and during the experiment. The compounds were dissolved in water by addition of one mole of hydrochloric acid per mole of compound and these solutions were administered orally to each of 12 mice. A further 12 mice were dosed orally with water. The mice were placed in boxes through which air was drawn and the oxygen content of the air leaving the boxes was measured. The energy expenditure of the mice was calculated for 21 hours after dosing from the volume of air leaving the boxes and its oxygen content, following the principles described by J. B. de V. Weir, J. Physiol. (London), 109, 1-9 (1949).

[3] = po, 21 h, read-out: Mean Energy Expenditure (0-21 h)
[4] = po, 3 h, read-out: Mean Energy Expenditure (0-3 h)
[5] = 2.5 μmol/Kg oral, 2 h after glucose 1 g/Kg s.c., vs control
[6] = 22.1 mg/kg po, 0-3 h, read-out: Mean Energy Expenditure (0-3 h)
[7] = 22.1 mg/kg po, 0-21 h, read-out: Mean Energy Expenditure (0-21 h)
[8] = 12.5 μmol/Kg oral, 2 h after glucose 1 g/Kg s.c., vs control

COC(=O)COc1ccc(C[C@@H](C)NC[C@H](OC)c2cccc(Cl)c2)cc1 (relative stereo) [Example 60, N-[2-(4-Carbomethoxymethoxyphenyl)-1-methylethyl]-2-methoxy-2-(3-chlorophenyl)ethanamine hydrochloride(RR,SS)diasteroisomer]
inhibition in vivo at 0.5 µmol/kg ([1]; 0.5 μmol/Kg oral, 2 h after glucose 1 g/Kg s.c., vs control): 30.5% | response vs control in vivo at 8.6 mg/kg [2, 3]: 115% | response vs control in vivo at 8.6 mg/kg ([2]; 8.6 mg/kg po, 0-3 h, read-out: Mean Energy Expenditure (0-3 h)): 131%

COC(=O)COc1ccc(CC(C)NCC(OC)c2cccc(C(F)(F)F)c2)cc1 (stereo not drawn) [Example 2, N-[2-(4-Carbomethoxymethoxyphenyl)-1-methylethyl]-2-methoxy-2-(3-trifluoromethylphenyl)ethanamine hydrochloride]
inhibition in vivo at 12.5 µmol/kg ([1]; po, 2 h): 47% | response vs control in vivo at 23.1 mg/kg [2, 4]: 124% | response vs control in vivo at 23.1 mg/kg [2, 3]: 113%

CCOC(CNC(C)Cc1ccc(OCC(=O)OC)cc1)c1cccc(Cl)c1 (stereo not drawn) [Example 3, N-[2-(4-Carbomethoxymethoxyphenyl)-1-methylethyl]-2-ethoxy-2-(3-chlorophenyl)ethanamine hydrochloride]
inhibition in vivo at 12.5 µmol/kg ([1]; po, 2 h): 49% | response vs control in vivo at 22.1 mg/kg [2, 4]: 135% | response vs control in vivo at 22.1 mg/kg [2, 3]: 116%

CNC(=O)COc1ccc(CC(C)NCC(OC)c2cccc(Cl)c2)cc1 (stereo not drawn) [Example 4, N-[2-(4-Methylaminocarbonylmethoxyphenyl)-1-methylethyl]-2-methoxy-2-(3-chlorophenyl)ethanamine hydrochloride]
inhibition in vivo at 1 µmol/kg ([1]; po, 2 h): 54% | response vs control in vivo at 8.5 mg/kg [2, 4]: 152% | response vs control in vivo at 8.5 mg/kg [2, 3]: 120%

COC(=O)c1ccc(CC(C)NCC(OC)c2cccc(Cl)c2)cc1 (stereo not drawn) [Example 5, N-[2-(4-Carbomethoxyphenyl)-1-methylethyl]-2-methoxy-2-(3-chlorophenyl)ethanamine hydrochloride]
inhibition in vivo at 12.5 µmol/kg ([1]; po, 2 h): 27% | response vs control in vivo at 19.9 mg/kg [2, 4]: 128% | response vs control in vivo at 19.9 mg/kg [2, 3]: 117%

COC(=O)COc1cccc(CC(C)NCC(OC)c2cccc(Cl)c2)c1 (stereo not drawn) [Example 8, N-[2-(3-Carbomethoxymethoxyphenyl)-1-methylethyl]-2-methoxy-2-(3-chlorophenyl)ethanamine hydrochloride]
inhibition in vivo at 12.5 µmol/kg ([1]; po, 2 h): 49% | response vs control in vivo at 21.4 mg/kg [2, 4]: 142% | response vs control in vivo at 21.4 mg/kg [2, 3]: 111%

CNCCOc1ccc(CC(C)NCC(OC)c2cccc(Cl)c2)cc1 (stereo not drawn) [Example 9, N-[2-(4-Methylaminoethoxy)phenyl)-1-methylethyl]-2-methoxy-2-(3-chlorophenyl)ethanamine dihydrochloride]
inhibition in vivo at 2.5 µmol/kg [1, 5]: 31% | response vs control in vivo at 22.4 mg/kg [2, 4]: 168% | response vs control in vivo at 22.4 mg/kg ([2]; 22.4 mg/kg po, 0-21 h, read-out: Mean Energy Expenditure (0-21 h)): 151%

COC(=O)COc1ccc(CC(C)NCC(OC)c2ccccc2)cc1 (stereo not drawn) [Example 10, N-[2-(4-Carbomethoxymethoxyphenyl)-1-methylethyl]-2-methoxy-2-phenylethanamine hydrochloride monohydrate]
inhibition in vivo at 1 µmol/kg ([1]; po, 2 h): 24% | response vs control in vivo at 20.6 mg/kg [2, 4]: 135% | response vs control in vivo at 20.6 mg/kg [2, 3]: 114%

CNC(=O)COc1ccc(CC(C)NCC(OC)c2ccccc2)cc1 (stereo not drawn) [Example 11, N-[2-(4-Methylaminocarbonylmethoxyphenyl)-1-methylethyl]-2-methoxy-2-phenylethanamine hydrochloride]
inhibition in vivo at 1 µmol/kg ([1]; po, 2 h): 42% | response vs control in vivo at 19.6 mg/kg [2, 4]: 139% | response vs control in vivo at 19.6 mg/kg [2, 3]: 118%

COC(=O)COc1ccc(CC(C)NCC(OC)c2cccc(Br)c2)cc1 (stereo not drawn) [Example 12, N-[2-(4-Carbomethoxymethoxyphenyl)-1-methylethyl]-2-methoxy-2-(3-bromophenyl)ethanamine hydrochloride]
inhibition in vivo at 1 µmol/kg ([1]; po, 2 h): 51% | response vs control in vivo at 23.6 mg/kg [2, 4]: 130% | response vs control in vivo at 23.6 mg/kg [2, 3]: 123%

CNCCOc1ccc(CC(C)NCC(OC)c2ccccc2)cc1 (stereo not drawn) [Example 13, N-[2-(4-(2-Methylaminoethoxy)phenyl)-1-methylethyl]-2-methoxy-2-phenylethanamine dihydrochloride]
inhibition in vivo at 2.5 µmol/kg ([1]; po, 2 h): 21% | response vs control in vivo at 20.8 mg/kg [2, 4]: 145% | response vs control in vivo at 20.8 mg/kg [2, 3]: 118%

COC(=O)COc1ccc(CCC(C)NCC(OC)c2cccc(Cl)c2)cc1 (stereo not drawn) [Example 14, N-[3-(4-Carbomethoxymethoxyphenyl)-1-methylpropyl)-2-methoxy-2-(3-chlorophenyl)ethanamine hydrochloride]
response vs control in vivo at 22.1 mg/kg [2, 6]: 135% | response vs control in vivo at 22.1 mg/kg [2, 7]: 103%

CNC(=O)COc1ccc(CC(C)NCC(OC)c2cccc(Br)c2)cc1 (stereo not drawn) [Example 15, N-[2-(4-Methylaminocarbonylmethoxyphenyl)-1-methylethyl]-2-methoxy-2-(3-bromophenyl)ethanamine hydrochloride]
inhibition in vivo at 0.5 µmol/kg ([1]; po, 2 h): 41% | response vs control in vivo at 23.6 mg/kg [2, 4]: 137% | response vs control in vivo at 23.6 mg/kg [2, 3]: 125%

CCOC(CNC(C)Cc1ccc(OCC(=O)NC)cc1)c1cccc(Cl)c1 (stereo not drawn) [Example 16, N-[2-(4-Methylaminocarbonylmethoxyphenyl)-1-methylethyl]-2-ethoxy-2-(3-chlorophenyl)ethanamine hydrochloride]
inhibition in vivo at 1 µmol/kg ([1]; po, 2 h): 49% | response vs control in vivo at 22.1 mg/kg [2, 4]: 140% | response vs control in vivo at 22.1 mg/kg [2, 3]: 126%

CNCCOc1ccc(CC(C)NCC(OC)c2cccc(Br)c2)cc1 (stereo not drawn) [Example 17, N-[2-(4-Methylaminoethoxy)phenyl)-1-methylethyl]-2-methoxy-2-(3-bromophenyl)ethanamine dihydrochloride]
inhibition in vivo at 2.5 µmol/kg [1, 5]: 25% | response vs control in vivo at 24.7 mg/kg [2, 4]: 142% | response vs control in vivo at 24.7 mg/kg [2, 3]: 130%

CCOC(CNC(C)Cc1ccc(OCCNC)cc1)c1cccc(Cl)c1 (stereo not drawn) [Example 18, N-[2-(4-(2-Methylaminoethoxy)phenyl)-1-methylethyl]-2-ethoxy-2-(3-chlorophenyl)ethanamine dihydrochloride]
inhibition in vivo at 12.5 µmol/kg ([1]; po, 2 h): 47.5% | response vs control in vivo at 23.2 mg/kg [2, 4]: 115% | response vs control in vivo at 23.2 mg/kg [2, 3]: 123%

COC(CNC(C)Cc1ccc(OCC(=O)N(C)C)cc1)c1cccc(Cl)c1 (stereo not drawn) [Example 19, N-[2-(4-Dimethylaminocarbonylmethoxyphenyl)-1-methylethyl]-2-methoxy-2-(3-chlorophenyl)ethanamine hydrochloride]
inhibition in vivo at 1 µmol/kg ([1]; po, 2 h): 56% | response vs control in vivo at 22.1 mg/kg [2, 4]: 143% | response vs control in vivo at 22.1 mg/kg [2, 3]: 139%

COC(CNC(C)Cc1ccc(OCCO)cc1)c1ccccc1 (stereo not drawn) [Example 21, N-[2-(4-(2-Hydroxyethoxy)phenyl)-1-methylethyl]-2-methoxy-2-phenylethanamine hydrochloride hemihydrate]
inhibition in vivo at 1 µmol/kg ([1]; 1.0 μmol/Kg oral, 2 h after glucose 1 g/Kg s.c., vs control): 48% | response vs control in vivo at 18.8 mg/kg [2, 3]: 120% | response vs control in vivo at 18.8 mg/kg ([2]; 18.8 mg/kg po, 0-3 h, read-out: Mean Energy Expenditure (0-3 h)): 147%

CNC(=O)COc1ccc(CCC(C)NCC(OC)c2cccc(Cl)c2)cc1 (stereo not drawn) [Example 22, N-[3-(4-Methylaminocarbonylmethoxyphenyl)-1-methylpropyl]-2-methoxy-2-(3-chlorophenyl)ethanamine hydrochloride]
inhibition in vivo at 25 µmol/kg ([1]; 25 μmol/Kg oral, 2 h after glucose 1 g/Kg s.c., vs control): 39% | response vs control in vivo at 22.1 mg/kg [2, 6]: 126% | response vs control in vivo at 22.1 mg/kg [2, 7]: 107%

COC(=O)c1ccc(CC(C)NCC(OC)c2ccccc2)cc1 (stereo not drawn) [Example 32, N-[2-(4-Carbomethoxyphenyl)-1-methylethyl]-2-methoxy-2-phenylethanamine hydrochloride hemihydrate]
inhibition in vivo at 12.5 µmol/kg [1, 8]: 19%

COc1ccc(CC(C)NCC(OC)c2cccc(Cl)c2)cc1 (stereo not drawn) [Example 38, N-[2-(4-Methoxyphenyl)-1-methylethyl]-2-methoxy-2-(3-chlorophenyl)ethanamine hydrochloride]
inhibition in vivo at 25 µmol/kg ([1]; po, 2 h): 38%

COC(=O)c1ccc(CC(C)NCC(OC)c2cccc(C(F)(F)F)c2)cc1 (stereo not drawn) [Example 45, N-[2-(4-Carbomethoxyphenyl)-1-methylethyl]-2-methoxy-2-(3-trifluoromethylphenyl)ethanamine hydrochloride hemihydrate]
inhibition in vivo at 12.5 µmol/kg [1, 8]: 38%

CNC(=O)COc1ccc(CC(C)NCC(OC)c2cccc(F)c2F)cc1 (stereo not drawn) [Example 54, N-[2-(4-Methylaminocarbonylmethoxyphenyl)-1-methylethyl]-2-methoxy-2-(2,3-difluorophenyl)ethanamine dihydrochloride]
inhibition in vivo at 25 µmol/kg ([1]; po, 2 h): 40%
